Laboratory results published in patent publication US9365572B2, “PI3K and/or mTOR inhibitor” (XUANZHU PHARMA CO., LTD., priority 2012, dated 2016).
Counter-ions that a name gives are not always drawn.

Tests used:
[1] = biological target: PI3Kα (Homo sapiens (Human), UniProt P42336); experiment: PI3Kα enzymatic assay; format: biochemical; settings: read-out: In vitro enzymatic activity (IC50) PI3Kα
Procedure: (§1) Assay 1-2: In Vitro Enzymatic Inhibitory Activity of the Present Compound
(§2) • 1.1 1-fold kinase buffer: 50 mM HEPES, pH 7.5, 10 mM MgCl2, 1 mM EGTA, 3 mM MnCl2, 0.01% Tween-20, 2 mM DTT; • 1.2 4-fold kinase solution: mTOR kinase was added to 1-fold kinase buffer to form 4-fold kinase solution with a final concentration of 2.5 nM; • 1.3 2-fold substrate and ATP solution: the substrate 4EBP1 and ATP were added to 1-fold kinase buffer to form 2-fold substrate solution with final concentration of 50 nM of 4EBP1 and 10.8 μM of ATP; • 1.4 4-fold test substance solutions: 100-fold test substance solutions in different gradient concentrations were formulated with 100% DMSO, and diluted by 25 folds with 1-fold kinase buffer to form 4-fold test substance solutions in different gradient concentrations. • 1.5 Preparation of detection solution: a detection solution containing 2-fold final concentrations of EDTA and 4EBP1 phosphorylated antibody was formulated, wherein the final concentration for EDTA was 8 mM, and the final concentration for the 4EBP phosphorylated antibody was 2 nM. 2. Procedure • 2.1 To each well of a 384-well plate was added 2.5 μL of the 4-fold test substance solutions in gradient concentrations. The replication was made. • 2.2 To each well was added 2.5 μL of 4-fold kinase solution, and then the plate was incubated for 10 mins; • 2.3 Then to each well was added 5 μL/of 2-fold substrate and ATP solution, and then the plate was incubated at room temperature for 1 hour; • 2.4 Finally, 10 μL of the detection solution was added to terminate the reaction. After 60 mins, the data Lance signal ([…]) was read from Envision. 3 Data treatment Inhibition rate (%)=[…] • wherein: • maximum refers to the reading at the DMSO control well. • minimum refers to the reading at the control well without kinase, • The data was input into Graphpad Prism 5.0 to plot and obtain the curve and IC50 value. PI3Kα Enzymatic Assay 1. […] After 15 mins, the data Lance signal ([…]) was read from Envision. 3 Data treatment Inhibition rate (%)=100−(sample value−minimum)/(maximum−minimum)×100 • wherein: • maximum refers to the reading at the control well without kinase, • minimum refers to the reading at the DMSO control well, • The data was input into Graphpad Prism 5.0 to plot and obtain the curve and IC50 value. […]

[2] = biological target: mTOR (Homo sapiens (Human), UniProt P42345); experiment: mTOR enzymatic assay; format: biochemical; settings: read-out: In vitro enzymatic activity (IC50) mTOR
Procedure: as §1
1. Preparation of Agents:
as §2

[3] = test system: U87MG; experiment: In vitro cytological inhibitory activity (XTT); format: cell-based; settings: Homo sapiens, U-87 MG, 72 hrs
Procedure: U87MG: Human brain astrocytoblast cell line;
(§3) 1. Preparation of agents and compounds:
(§4) • 1.1 Preparation of phosphoric acid buffering solution (PBS): 8 g NaCl, 0.2 g KCl, 1.44 g Na2HPO4 and 0.24 g KH2PO4 were weighed and added to 800 mL ultrapure water. The mixture was adjusted to pH=7.4, and ultrapure water was added to the metered volume of IL. Then the autoclaving was conducted for 20 mins. • 1.2 Preparation of XTT detection working solution: 100 mg (2,3-Bis-(2-methoxy-4-nitro-5-sulfophenyl)-2H-tetrazolium-5-carboxanilide); 2,3-bis(2-methoxy-4-nitro-5-sulfophenyl)-5-[(phenylamino)carbonyl]-2H-tetrazolium hydroxide (XTT) powder was weighed, and dissolved under protection from light 300 mL of phenol red-free and serum-free RPMI1640 culture, which had been warmed up to 50° C. The resulting mixture was filtered, packaged and used immediately or in one week. The complete process was conducted under protection from light. • 1.3 Preparation of the test compound • Preparation of the stock solution of the test compound: The test compound powder was dissolved in DMSO in a concentration of 10 mM. • Preparation of the gradiently diluted solution of the test compound: 10 mM of the stock solution of the test compound was successively and gradiently diluted with DMSO by 4 folds for 10 concentrations. […]

[4] = test system: A549; experiment: In vitro cytological inhibitory activity (XTT); format: cell-based; settings: Homo sapiens, 72 hrs
Procedure: A549: Human lung cancer cell line;
as §3, §4

[5] = test system: PC-3; experiment: In vitro cytological inhibitory activity (XTT); format: cell-based; settings: Homo sapiens, 72 hrs
Procedure: PC-3: Human prostatic carcinoma cell line;
as §3, §4

[6] = test system: SKOV-3; experiment: In vitro cytological inhibitory activity (XTT); format: cell-based; settings: Homo sapiens, SK-OV-3, 72 hrs
Procedure: SKOV-3: Human ovarian cancer cell line;
as §3, §4

[7] = In vivo pharmacokinetics assay in rat; settings: male, SD, plasma, rats; for Vd: read-out: Vss
Text: Test animals: male SD rats, weighing 190-260 g. Intravenous bolus injection (I.V.) and gavage (P.O.) administrations were each applied to three rats.
Compound 5, for both I.V and P.O administrations, was solubilized with a solution of 30% DMF+50% PEG400+20%(0.9% sodium chloride injection)(the pH being adjusted with a suitable amount of an aqueous hydrochloric acid solution (2 mol/L)).
Compound 6, for both I.V and P.O administrations, was solubilized with a solution of 30% DMF+30% PEG400+5%0.1 mol/lhydrochloric acid+[…] normal saline.
Compound 30 for I.V administration was solubilized with a solution of 30% DMF+50% PEG400+20% normal saline; Compound 30 for P.O administration was solubilized with a solution of 5% DMSO+30% polyoxyethylene castor oil+65% normal saline.
Compound 30 hydrochloride for I.V administration was solubilized with a solution of 30% DMF+50% PEG400+20% sterile water for injection.
I.V blood sampling time point: 0.083 h, 0.25 h, 0.5 h, 1 h, 2 h, 4 h, 6 h, 8 h and 24 h after the administration, P.O blood sampling time point: 0.17 h, 0.5 h, 1 h, 2 h, 4 h, 6 h, 8 h and 24 h after the administration.
About 100 μl of whole blood was taken at each time point, anticoagulated with heparin sodium, and centrifugated at 8,000 rpm in a high-speed centrifuge for 6 minutes to separate plasma, and the resulting plasma was frozen at −80° C. in a refrigerator.
The plasma sample was treated with a liquid-liquid extraction. 20 μL of plasma was taken. A solution of BEZ-235 (Novartis, Phase II) in tertbutylmethylether (600 μL, 10 ng/mL) was added as internal standard. The mixture was rotated vertically at 1500 rpm for 10 mins and then centrifugated at 12000 rpm for 5 mins. 400 μL of the supernate was taken and dried under nitrogen. The dried substance was redissolved in 200 μL methanol:water (7:3, V/V) for LC-MS/MS analysis.
Calculation Absolute bioavailability F%=[AUC]last (P.O)*Dose(I.V)/[AUC]last (I.V)*Dose(P.O)

Chain of PI3Kα (P42336 whole entry): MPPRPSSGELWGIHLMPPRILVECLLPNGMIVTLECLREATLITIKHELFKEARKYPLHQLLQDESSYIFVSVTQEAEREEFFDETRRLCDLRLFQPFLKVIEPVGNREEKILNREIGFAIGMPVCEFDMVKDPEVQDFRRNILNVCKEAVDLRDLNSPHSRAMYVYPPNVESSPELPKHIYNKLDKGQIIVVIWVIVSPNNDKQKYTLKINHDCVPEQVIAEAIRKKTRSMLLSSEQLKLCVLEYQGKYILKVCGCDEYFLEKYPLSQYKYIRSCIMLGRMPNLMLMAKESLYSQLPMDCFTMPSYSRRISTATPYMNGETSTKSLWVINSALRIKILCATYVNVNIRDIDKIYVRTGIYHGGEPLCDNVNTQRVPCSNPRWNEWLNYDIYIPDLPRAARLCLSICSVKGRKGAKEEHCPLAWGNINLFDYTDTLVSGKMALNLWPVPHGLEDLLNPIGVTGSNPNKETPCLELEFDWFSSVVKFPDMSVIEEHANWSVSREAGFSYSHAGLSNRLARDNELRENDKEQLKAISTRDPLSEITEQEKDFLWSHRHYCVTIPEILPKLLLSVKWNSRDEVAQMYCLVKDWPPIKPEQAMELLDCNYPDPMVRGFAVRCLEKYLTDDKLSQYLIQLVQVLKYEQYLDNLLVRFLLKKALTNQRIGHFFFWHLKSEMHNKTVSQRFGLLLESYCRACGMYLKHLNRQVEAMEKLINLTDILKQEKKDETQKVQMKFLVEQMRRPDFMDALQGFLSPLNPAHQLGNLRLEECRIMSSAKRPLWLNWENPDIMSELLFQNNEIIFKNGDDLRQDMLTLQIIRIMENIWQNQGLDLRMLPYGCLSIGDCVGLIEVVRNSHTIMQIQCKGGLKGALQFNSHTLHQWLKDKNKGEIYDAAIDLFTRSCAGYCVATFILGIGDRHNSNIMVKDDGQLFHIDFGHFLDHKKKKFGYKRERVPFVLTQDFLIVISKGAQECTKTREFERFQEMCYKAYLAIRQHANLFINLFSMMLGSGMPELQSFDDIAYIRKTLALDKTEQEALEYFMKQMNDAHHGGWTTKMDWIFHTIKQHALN
Chain of PI3Kα (P27986 whole entry partner): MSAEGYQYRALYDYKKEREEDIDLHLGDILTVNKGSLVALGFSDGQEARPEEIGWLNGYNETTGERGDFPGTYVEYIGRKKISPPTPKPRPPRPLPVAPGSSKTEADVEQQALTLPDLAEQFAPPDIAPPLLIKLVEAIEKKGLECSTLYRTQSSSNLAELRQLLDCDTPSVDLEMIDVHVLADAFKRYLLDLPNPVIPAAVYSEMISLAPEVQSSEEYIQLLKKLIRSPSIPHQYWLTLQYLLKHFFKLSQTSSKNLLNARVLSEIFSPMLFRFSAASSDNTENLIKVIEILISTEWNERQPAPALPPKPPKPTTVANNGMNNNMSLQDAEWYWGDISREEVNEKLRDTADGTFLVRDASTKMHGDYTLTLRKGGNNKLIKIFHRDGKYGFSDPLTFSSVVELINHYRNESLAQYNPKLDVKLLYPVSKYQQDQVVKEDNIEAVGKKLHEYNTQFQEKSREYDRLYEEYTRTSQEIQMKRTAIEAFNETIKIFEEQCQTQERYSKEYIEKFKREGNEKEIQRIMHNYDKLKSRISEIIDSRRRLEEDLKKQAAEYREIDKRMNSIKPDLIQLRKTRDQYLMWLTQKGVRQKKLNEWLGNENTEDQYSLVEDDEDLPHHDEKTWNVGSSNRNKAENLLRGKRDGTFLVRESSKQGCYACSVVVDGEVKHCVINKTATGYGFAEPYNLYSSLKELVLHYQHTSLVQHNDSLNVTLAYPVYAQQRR

| Compound | IC50 [1] [nM] | IC50 [2] [nM] | AUC(0-inf) ([7]; intravenous, I.V, 2 mg/kg) [ng·h/mL] | AUC(0-t) ([7]; intravenous, I.V, 2 mg/kg) [ng·h/mL] | clearance ([7]; intravenous, I.V, 2 mg/kg) [mL/min/kg] | half-life ([7]; intravenous, I.V, 2 mg/kg) [h] | Vd ([7]; intravenous, I.V, 2 mg/kg) [L/kg] | further results |
| --- | --- | --- | --- | --- | --- | --- | --- | --- |
| COc1ccc(-c2ccc3ncc4c(=O)[nH]c(=O)n(-c5cccc(C(F)(F)F)c5)c4c3n2)cn1 [Compound 2, 9-(6-methoxypyridin-3-yl)-1-(3-(trifluoromethyl)phenyl)pyrimido[5,4-c][1,5]naphthyridine-2,4(1H,3H)-dione] | 79 | 57 |  |  |  |  |  |  |
| Cn1c(=O)c2cnc3ccc(-c4ccc(N)nc4)nc3c2n(-c2cccc(C(F)(F)F)c2)c1=O [Compound 6] |  |  | 4470 | 4450 | 7.67 | 3.15 | 1.95 | IC50 [3]: 37.6 nM; IC50 [4]: 89.5 nM; IC50 [5]: 35.8 nM; IC50 [6]: 63.1 nM; bioavailability ([7]; oral, P.O 4 mg/kg vs I.V 2 mg/kg, read-out: F % (absolute bioavailability)): 115%; AUC(0-inf) ([7]; oral, P.O, 4 mg/kg): 10300 ng·h/mL; AUC(0-t) ([7]; oral, P.O, 4 mg/kg): 10200 ng·h/mL; Cmax ([7]; oral, P.O, 4 mg/kg): 1120 ng/mL; Tmax ([7]; oral, P.O, 4 mg/kg): 2 h; half-life ([7]; oral, P.O, 4 mg/kg): 3.92 h |
| COc1ncc(-c2ccc3ncc4c(=O)[nH]c(=O)n(-c5cccc(C(F)(F)F)c5)c4c3n2)cn1 [Compound 17, 9-(2-methoxypyrimidin-5-yl)-1-(3-(trifluoromethyl)phenyl)pyrimido[5,4-c][1,5]naphthyridine-2,4(1H,3H)-dione] | 40.7 | 39.3 |  |  |  |  |  |  |
| Nc1ncc(-c2ccc3ncc4c(=O)[nH]c(=O)n(-c5cccc(C(F)(F)F)c5)c4c3n2)cn1 [Compound 20, 9-(2-aminopyrimidin-5-yl)-1-(3-(trifluoromethyl)phenyl)pyrimido[5,4-c][1,5]naphthyridine-2,4(1H,3H)-dione] | 15.2 | 2.66 |  |  |  |  |  |  |
| O=c1[nH]c(=O)n(-c2cccc(C(F)(F)F)c2)c2c1cnc1ccc(-c3cnc4[nH]ccc4c3)nc12 [Compound 30 hydrochloride] |  |  | 1690 | 1680 | 19.7 | 3.04 | 2.49 |  |
